Reference: US20050020630A1, “Cycloalkyl and heterocycloalkyl substituted benzothiophenes as therapeutic agents” (priority 2003, published 2005)

The compounds below were run against T1, PI3Kγ (Homo sapiens, UniProt P48736) (assay: PI3Kγ In Vitro Kinase Assay). Details: purified recombinant p101/p110 γ protein with G protein β1/γ2 subunits; 20 μM ATP, 25 μM PIP2; 20 minutes at room temperature; radioactive PIP3 readout.
T1 construct: HA; made in house; host or cells: Spodoptera frugiperda (Sf9) cells, baculovirus co-infection
T1 sequence (P48736 whole entry, species assumed): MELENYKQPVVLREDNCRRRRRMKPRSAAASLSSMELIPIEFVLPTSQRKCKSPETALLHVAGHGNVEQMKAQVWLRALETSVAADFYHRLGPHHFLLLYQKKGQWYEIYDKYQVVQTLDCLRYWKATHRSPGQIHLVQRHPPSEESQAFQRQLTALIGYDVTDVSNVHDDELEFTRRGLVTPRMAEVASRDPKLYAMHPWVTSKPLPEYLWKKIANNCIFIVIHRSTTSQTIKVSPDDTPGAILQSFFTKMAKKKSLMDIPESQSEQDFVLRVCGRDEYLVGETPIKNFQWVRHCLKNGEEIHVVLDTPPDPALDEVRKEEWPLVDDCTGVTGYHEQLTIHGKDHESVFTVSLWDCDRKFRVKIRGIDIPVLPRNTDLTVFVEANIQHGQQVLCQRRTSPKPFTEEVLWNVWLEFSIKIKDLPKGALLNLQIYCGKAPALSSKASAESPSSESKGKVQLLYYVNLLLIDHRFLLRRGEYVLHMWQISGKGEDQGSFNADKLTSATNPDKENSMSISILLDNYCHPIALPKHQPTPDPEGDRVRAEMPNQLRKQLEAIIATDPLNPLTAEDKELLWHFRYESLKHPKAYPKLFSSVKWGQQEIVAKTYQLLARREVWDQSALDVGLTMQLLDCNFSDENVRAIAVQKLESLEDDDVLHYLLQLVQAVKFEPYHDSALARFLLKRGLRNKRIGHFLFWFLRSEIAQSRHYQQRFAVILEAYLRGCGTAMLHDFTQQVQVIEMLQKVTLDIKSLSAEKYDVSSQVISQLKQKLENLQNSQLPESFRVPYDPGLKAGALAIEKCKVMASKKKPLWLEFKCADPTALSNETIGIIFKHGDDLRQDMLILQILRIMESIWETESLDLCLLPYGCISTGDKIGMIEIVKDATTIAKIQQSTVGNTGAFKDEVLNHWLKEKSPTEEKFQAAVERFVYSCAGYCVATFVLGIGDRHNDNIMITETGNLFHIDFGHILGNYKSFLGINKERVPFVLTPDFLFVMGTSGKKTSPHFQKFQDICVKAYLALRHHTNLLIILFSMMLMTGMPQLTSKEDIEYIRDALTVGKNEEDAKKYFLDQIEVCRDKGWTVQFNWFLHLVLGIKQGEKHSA
T1 sequence (Q8WYR1 whole entry partner, species assumed): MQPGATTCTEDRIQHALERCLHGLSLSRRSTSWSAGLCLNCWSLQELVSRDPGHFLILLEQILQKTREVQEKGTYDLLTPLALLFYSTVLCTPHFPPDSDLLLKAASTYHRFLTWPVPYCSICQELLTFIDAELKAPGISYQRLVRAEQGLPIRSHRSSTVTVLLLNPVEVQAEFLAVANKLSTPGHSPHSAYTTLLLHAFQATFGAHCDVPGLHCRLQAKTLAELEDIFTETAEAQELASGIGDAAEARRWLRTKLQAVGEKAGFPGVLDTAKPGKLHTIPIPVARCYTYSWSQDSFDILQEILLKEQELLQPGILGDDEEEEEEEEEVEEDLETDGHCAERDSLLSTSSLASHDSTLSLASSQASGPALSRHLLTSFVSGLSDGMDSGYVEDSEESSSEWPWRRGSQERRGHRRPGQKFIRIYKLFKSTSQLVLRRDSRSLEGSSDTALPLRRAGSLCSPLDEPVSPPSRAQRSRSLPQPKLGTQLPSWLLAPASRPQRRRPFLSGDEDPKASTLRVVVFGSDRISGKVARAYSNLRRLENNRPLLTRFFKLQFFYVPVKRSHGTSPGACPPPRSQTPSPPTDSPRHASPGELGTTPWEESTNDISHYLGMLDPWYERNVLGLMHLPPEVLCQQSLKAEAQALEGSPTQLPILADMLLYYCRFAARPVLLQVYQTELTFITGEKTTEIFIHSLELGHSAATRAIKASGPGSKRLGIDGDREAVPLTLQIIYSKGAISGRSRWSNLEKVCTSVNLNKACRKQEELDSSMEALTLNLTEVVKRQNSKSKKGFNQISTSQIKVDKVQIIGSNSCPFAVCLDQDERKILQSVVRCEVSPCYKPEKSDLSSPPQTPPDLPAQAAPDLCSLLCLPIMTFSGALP
Assay type: biochemical
Experimental: Spodtera frugiperda cells, grown in ESF921 media, were coinfected with baculovirus expressing a glu-tagged p101 and baculovirus expressing an HA-tagged p110γ, at a 3:1 ratio of p101 baculovirus to p110γ baculovirus. Sf9 cells were grown to 1×10^7 total cells/mL in 10 L bioreactors and harvested 48-72 hours post infection. Samples of infected cells were then tested for expression of p101/p110 γ PI3 kinase by immunoprecipitation and Western Blot analysis methods (see below). To purify PI3Kγ, 4 volumes of room temperature hypotonic lysis buffer (1 mM MgCl2, 1 mM DTT, 5 mM EGTA, 1 mM Pefabloc, 0.5 μM aprotinin, 5 μM leupeptin, 2 μM pepstatin, 5 μM E64, pH 8) per gram of cell paste, was poured onto frozen cell pellets with stirring, then lysed in a nitrogen “bomb” at 400 psi (599HC […], Parr Instrument Co, Moline, Ill.). NaCl was added to 150 mM, and sodium cholate was added to 1% and mixed for another 45 minutes. The lysates were clarified by centrifugation for 25 minutes at 14,000 rpm. The lysates were then loaded over anti-glu-linked Protein-G Sepaharose beads (Covance Research Products, Richmond, Calif.) using 20 mL resin/50 g cell paste. The column was washed with 15 volumes of wash buffer (1 mM DTT, 0.2 mM EGTA, 1 mM Pefabloc, 0.5 μM aprotinin, 5 μM leupeptin, 2 μM pepstatin, 5 μM E64, 150 mM NaCl, 1% sodium cholate, pH 8). PI3Kγ was eluted with 6 column volumes of wash buffer that contain 100 μg/mL of a peptide that competes for binding of the glu tag. The column fractions with the eluted protein (determined by taking OD280 readings) were collected and dialyzed in 0.2 mM EGTA, 1 mM DTT, 1 mM Pefabloc, 5 μM leupeptin, 0.5% sodium cholate, 150 mM NaCl, and 50% glycerol, pH 8. The fractions were stored at -80° C. until further use. Spodtera frugiperda cells were coinfected with baculovirus expressing a glu-tagged G protein β1 and baculovirus expressing a G protein β2, at a 1:1 ratio of glu-tagged G protein β1 baculovirus to G protein β2 baculovirus. Sf9 cells are grown in 10 L bioreactors and harvested 48-72 hours post infection. Samples of infected cells were tested for G protein β1/β2 expression by Western Blot analysis, as described below. Cell lysates were homogenized and loaded onto a column of glu-tagged beads as in Biological Example 1 and competed off the column with a glu peptide and processed as described in Biological Example 1. The inhibitory properties of the compounds in Table 1 were assayed in an in vitro PI3K assay. In a 96-well polypropylene plate, each well was spotted with 2 μL of 50 times the desired final concentration of compound in DMSO. Purified recombinant p101/p110 γ protein (0.03 μg; 2.7 nM) and G protein β1/γ2 subunits (0.09 μg; 57.7 nM) for each reaction was combined in the assay buffer (30 mM HEPES, 100 mM NaCl, 1 mM EGTA, and 1 mM DTT). ATP and [γ-^32P-ATP] (0.09 μCi) were added to this mixture so that the final ATP concentration in the reaction was 20 μM. Lipid micelles were formed by sonicating phosphatidylinositol-4,5-diphosphate (PIP2), phosphatidylethanolamine (PE), and Na-cholate in the assay buffer for 10 minutes, adding MgCl2 and incubating on ice for 20 minutes, for final concentrations of 25 μM PIP2, 300 μM PE, 0.02% Na-cholate, and 10 mM MgCl2 in the reaction. The reactions were started by adding equal volumes lipid and enzyme mixture in a total volume of 50 μL, allowed to run for 20 minutes at room temperature, and stopped with 100 μL 75 mM H3PO4. The lipid product was transferred to a glass fiber filter plate and washed with 75 mM H3PO4 several times. The presence of radioactive lipid product (PIP3) was measured by adding Wallac Optiphase mix to each well and counting in a Wallac 1450 Trilux plate reader (PerkinElmer Life Sciences Inc., Boston, Mass. 02118). The IC50 for each compound tested is reported in μM in Table 1: […]

Compound | IC50
COc1cc2c(OC3CC(C)CC(C)(C)C3)c(C(=O)Nc3nn[nH]n3)sc2cc1C (stereo not shown) [Example 4, 5-Methoxy-6-methyl-3-(3,3,5-trimethyl-cyclohexyloxy)-benzo[b]thiophene-2-carboxylic acid (2H-tetrazol-5-yl)-amide] | 9 nM
COc1cc2c(OC3CCCN(C(C)=O)C3)c(C(=O)Nc3nn[nH]n3)sc2cc1C (stereo not shown) [Example 13, 3-(1-Acetyl-piperidin-3-yloxy)-5-methyoxy-6-methyl-benzo[b]thiophene-2-carboxylic acid (2H-tetrazol-5-yl)-amide] | 72 nM
COc1cc2c(OC3CCN(Cc4ccccc4)CC3)c(C(=O)Nc3nn[nH]n3)sc2cc1C [Example 9, 3-(1-Benzyl-piperidin-4-yloxy)-5-methoxy-6-methyl-benzo[b]thiophene-2-carboxylic acid (2H-tetrazol-5-yl)-amide] | 250 nM
COc1cc2c(OC3CCNCC3)c(C(=O)Nc3nn[nH]n3)sc2cc1C [Example 12, 5-Methoxy-6-methyl-3-(piperidiny-4yloxy)-benzo[b]thiophene-2-carboxylic acid (2H-tetrazol-5-yl)amide] | 715 nM
COc1cc2sc(C(=O)Nc3nnn[nH]3)c(OC3CCC3)c2cc1OC [Example 40, 3-Cyclobutoxy-5,6-dimethoxy-benzo[b]thiophene-2-carboxylic acid (1H-tetrazol-5-yl)-amide] | 92 nM
COc1cc2c(OC3CCCN(C(=O)OC(C)(C)C)C3)c(C(=O)Nc3nn[nH]n3)sc2cc1C (stereo not shown) [Example 14] | 53 nM
COc1cc2c(OC3CCCNC3)c(C(=O)Nc3nn[nH]n3)sc2cc1C (stereo not shown) [Example 10] | 1290 nM
COc1cc2c(OC3CCN(C4CCCCC4)CC3)c(C(=O)Nc3nn[nH]n3)sc2cc1C [Example 11, 3-(1-Cyclohexyl-piperdin-4-yloxy)-5-methoxy-6-methyl-benzo[b]thiophene-2-carboxylic acid (2H-tetrazol-5-yl-amide)] | 965 nM
COc1cc2c(OC3CCCC(C)C3)c(C(=O)Nc3nn[nH]n3)sc2cc1C (single isomer, unassigned) [Example 2, 5-Methoxy-6-methyl-3-(3-methyl-cyclohexyloxy)-benzo[b]thiophene-2-carboxylic acid (2H-tetrazol-5-yl)-amide] | 24 nM
COc1cc2c(OC3CCCCC3)c(C(=O)Nc3nn[nH]n3)sc2cc1C [Example 6, 3-Cyclohexyloxy-5-methoxy-6-methyl-benzo[b]thiophene-2-carboxylic acid (2H-tetrazol-5-yl)-amide] | 7 nM
COc1cc2c(OCCCC3CCCCC3)c(C(=O)Nc3nn[nH]n3)sc2cc1C [Example 15, 3-(3-Cyclohexyl-propoxy)-5-Methoxy-6-methyl-benzo[b}thiophene-2-carboxylic acid (2H-tetrazol-5-yl)amide] | 28 nM
COc1cc2c(OC3CC(C)(C)CC(C)(C)C3)c(C(=O)Nc3nn[nH]n3)sc2cc1C [Example 3, 5-Methoxy-6-methyl-3-(3,3,5,5-tetramethyl-cyclohexyloxy)-benzo[b]thiophene-2-carboxylic acid (2H-tetrazol-5-yl)-amide] | 165 nM

Further lines, results first:

IC50 | Compound
101 nM | COc1cc2sc(C(=O)Nc3nnn[nH]3)c(OCC3CCCC3)c2cc1OC [Example 43, 3-Cyclopentylmethoxy-5,6-dimethoxy-benzo[b]thiophene-2-carboxylic acid (1H-tetrazol-5-yl)-amide]
20 nM | COc1cc2c(OCC3(C)CC3)c(C(=O)Nc3nn[nH]n3)sc2cc1C [Example 18, 5-Methoxy-6-methyl-3-(1-methyl-cyclopropylmethoxy)-benzo[b]thiophene-2-carboxylic acid (2H-tetrazol-5-yl)-amide]
575 nM | COc1cc2sc(C(=O)Nc3nnn[nH]3)c(OC3CCOC3)c2cc1OC (stereo not shown) [Example 27, 5,6-Dimethoxy-3-(tetrahydro-furan-3-yloxy)-benzo[b]thiophene-2-carboxylic acid (1H-tetrazol-5-yl)-amide]
63 nM | COc1cc2sc(C(=O)Nc3nnn[nH]3)c(OC3CCC(C)C3)c2cc1OC (stereo not shown) [Example 31, 5,6-Dimethoxy-3-(3-methyl-cyclopentyloxy)-benzo[b]thiophene-2-carboxylic acid (1H-tetrazol-5-yl)-amide]
20 nM | COc1cc2sc(C(=O)Nc3nn[nH]n3)c(OC3CCCCC3)c2cc1C [Example 51, 3-Cyclohexyloxy-6-methoxy-5-methyl-benzo[b]thiophene-2-carboxylic acid (2H-tetrazol-5-yl)-amide]
245 nM | CCC1(COc2c(C(=O)Nc3nnn[nH]3)sc3cc(OC)c(OC)cc23)COC1 [Example 28, 3-(3-Ethyl-oxetan-3-ylmethoxy)-5,6dimethoxy-benzo[b]thiophene-2-carboxylic acid (1H-tetrazol-5-yl)-amide]
56 nM | COc1cc2sc(C(=O)Nc3nn[nH]n3)c(OC3CCC(C(C)(C)C)CC3)c2cc1OC (stereo not shown) [Example 23, 3-(4-tert-Butyl-cyclohexyloxy)-5,6-dimethoxy-benzo[b]thiophene-2-carboxylic acid (2H-tetrazol-5-yl)-amide]
23 nM | COc1cc2sc(C(=O)Nc3nnn[nH]3)c(OCCCC3CCCCC3)c2cc1OC [Example 36, 3-(3-Cyclohexyl-propoxy)-5,6-dimethoxy-benzo[b]thiophene-2-carboxylic acid (1H-tetrazol-5-yl)-amide]
101 nM | COc1cc2sc(C(=O)Nc3nnn[nH]3)c(OCC3CC=CCC3)c2cc1OC (stereo not shown) [Example 32, 3-(Cyclohex-3-enylmethoxy)-5,6-dimethoxy-benzo[b]thiophene-2-carboxylic acid (1H-tetrazol-5-yl)-amide]
72 nM | COc1cc2sc(C(=O)Nc3nnn[nH]3)c(OCC3CCC3)c2cc1OC [Example 38, 3-Cyclobutylmethoxy-5,6-dimethoxy-benzo[b]thiophene-2-carboxylic acid (1H-tetrazol-5-yl)-amide]
25 nM | COc1cc2c(OC3CCN(C(C)=O)CC3)c(C(=O)Nc3nn[nH]n3)sc2cc1C [Example 16, 3-(1-Acetyl-piperidin-4-yloxy)-5-methoxy-6-methyl-benzo[b]thiophene-2-carboxylic acid (2H-tetrazol-5-yl)-amide]
112 nM | COc1cc2sc(C(=O)Nc3nnn[nH]3)c(OC3CCC4CCCCC4C3)c2cc1OC (stereo not shown) [Example 47, 3-(Decahydro-naphthalen-2-yloxy)-5,6-dimethoxy-benzo[b]thiophene-2-carboxylic acid (1H-tetrazol-5-yl)-amide]
48 nM | COc1cc2sc(C(=O)Nc3nnn[nH]3)c(OC3CCCCCCC3)c2cc1OC [Example 33, 3-Cyclooctyloxy-5,6-dimethoxy-benzo[b]thiophene-2-carboxylic acid (1H-tetrazol-5-yl)-amide]
445 nM | 5,6-Dimethoxy-3-(3-methyl-oxetan-3-ylmethylmethoxy)-benzo[b]thiophene-2-carboxylic acid (1H-tetrazol-5-yl)-amide [Example 25]
14 nM | COc1cc2sc(C(=O)Nc3nnn[nH]3)c(OCC3C4CCC(C4)C3C)c2cc1OC (stereo not shown) [Example 29, 5,6 Dimethoxy-3-(3-methyl-bicyclo[2.2.1]hept-2-ylmethoxy)-benzo[b]thiophene-2-carboxylic acid (1H-tetrazol-5-yl)-amide]
36 nM | 3-Cycloheptylmethoxy-5,6-dimethoxy-benzo[b]thiophene-2-carboxylic acid (1H-tetrazol-5-yl)-amide [Example 42]
